Measurements published in the supplement of paper PMC10307832.

What was measured:
Assay in all cases: relative viability (nuclei count vs DMSO), 5 days (fraction); higher = more cells survive
IPA-3 + Lapatinib = compound: C1=CC=C2C(=C1)C=CC(=C2SSC3=C(C=CC4=CC=CC=C43)O)O [IPA-3] + CS(=O)(=O)CCNCc1ccc(-c2ccc3ncnc(Nc4ccc(OCc5cccc(F)c5)c(Cl)c4)c3c2)o1 [Lapatinib] (partner 2 µM)
Summary of the method: (§1)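 Relative viability is defined as nuclei in treated wells over nuclei in vehicle wells. Duplicate plates were run and medians reported. Lung cancer cell lines in 1536-well plates were dosed by pin tool one day after seeding, with one drug or with a fixed anchor-drug dose plus five library-drug doses (not always all listed) in √10 steps, and nuclei were counted after 5 days.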

RAF265 + Crizotinib = compound: Cn1c(Nc2ccc(C(F)(F)F)cc2)nc2cc(Oc3ccnc(-c4ncc(C(F)(F)F)[nH]4)c3)ccc21 [RAF265] + C[C@@H](Oc1cc(-c2cnn(C3CCNCC3)c2)cnc1N)c1c(Cl)ccc(F)c1Cl [Crizotinib] (partner 1 µM)
Summary of the method: as §1

RAF265 + Palbociclib = compound: Cn1c(Nc2ccc(C(F)(F)F)cc2)nc2cc(Oc3ccnc(-c4ncc(C(F)(F)F)[nH]4)c3)ccc21 [RAF265] + CC(=O)c1c(C)c2cnc(Nc3ccc(N4CCNCC4)cn3)nc2n(C2CCCC2)c1=O [Palbociclib] (partner 0.5 µM)
Summary of the method: as §1

RAF265 + Trametinib = compound: Cn1c(Nc2ccc(C(F)(F)F)cc2)nc2cc(Oc3ccnc(-c4ncc(C(F)(F)F)[nH]4)c3)ccc21 [RAF265] + CC(=O)Nc1cccc(-n2c(=O)n(C3CC3)c(=O)c3c(Nc4ccc(I)cc4F)n(C)c(=O)c(C)c32)c1 [Trametinib] (partner 0.02 µM)
Summary of the method: as §1

Cell Line	relative viability (IPA-3 + Lapatinib; first compound 0.2 µM)	relative viability (IPA-3 + Lapatinib; first compound 0.6325 µM)	relative viability (IPA-3 + Lapatinib; first compound 2 µM)	relative viability (IPA-3 + Lapatinib; first compound 6.325 µM)	relative viability (IPA-3 + Lapatinib; first compound 20 µM)	relative viability (RAF265 + Crizotinib; first compound 0.01 µM)	relative viability (RAF265 + Crizotinib; first compound 0.03162 µM)	relative viability (RAF265 + Crizotinib; first compound 0.1 µM)	relative viability (RAF265 + Crizotinib; first compound 0.3162 µM)	relative viability (RAF265 + Crizotinib; first compound 1 µM)	relative viability (RAF265 + Palbociclib; first compound 0.01 µM)	relative viability (RAF265 + Palbociclib; first compound 0.03162 µM)	relative viability (RAF265 + Palbociclib; first compound 0.1 µM)	relative viability (RAF265 + Palbociclib; first compound 0.3162 µM)	relative viability (RAF265 + Palbociclib; first compound 1 µM)	relative viability (RAF265 + Trametinib; first compound 0.01 µM)	relative viability (RAF265 + Trametinib; first compound 0.03162 µM)	relative viability (RAF265 + Trametinib; first compound 0.1 µM)	relative viability (RAF265 + Trametinib; first compound 0.3162 µM)	relative viability (RAF265 + Trametinib; first compound 1 µM)
ABC-1	1.1	1.06	1.23	1.37	1.29	1.17	0.864	1.37	0.851	0.464	0.633	0.644	0.646	0.528	0.47	–	–	–	–	–
IA-LM	1.07	0.8	0.755	0.578	0.725	0.711	0.646	0.803	0.768	0.642	–	–	–	–	–	–	–	–	–	–
NCI-H322M	0.566	0.66	0.596	0.566	0.613	0.897	0.839	0.866	0.281	0.282	0.474	0.498	0.425	0.381	0.326	0.496	0.421	0.486	0.507	0.409
NCI-H1792	1.07	0.888	0.94	0.894	1.01	1.01	0.989	0.977	0.839	0.419	0.658	0.676	0.758	0.474	0.298	0.485	0.408	0.361	0.218	0.0679
LXF-289	0.976	0.869	0.973	0.941	0.931	0.849	0.81	0.872	0.677	0.684	0.622	0.615	0.625	0.498	0.313	0.667	0.692	0.551	0.488	0.339
HCC-827	0.216	0.191	0.161	0.165	0.189	0.931	1	1.01	–	0.871	0.462	0.494	0.489	–	0.395	0.592	0.483	0.544	–	0.362
EMC-BAC-2	0.905	0.92	0.88	0.95	0.992	0.747	0.685	0.617	0.501	0.234	0.533	0.431	0.373	0.345	0.176	0.977	0.857	0.85	0.62	0.313
NCI-H520	1.04	0.894	0.697	0.95	0.729	0.632	0.762	0.774	0.771	0.607	0.264	0.218	0.239	0.191	0.155	0.684	0.65	0.508	0.519	0.338
NCI-H522	–	–	–	–	–	–	–	–	–	–	1.01	1.03	1.26	0.99	0.863	0.743	0.77	0.613	0.679	0.657
NCI-H1299	0.966	0.936	0.944	0.894	0.91	0.966	0.95	0.93	0.703	0.645	–	–	–	–	–	–	–	–	–	–
NCI-H1563	0.968	0.657	0.871	1.01	0.907	0.88	0.916	0.849	0.801	0.824	–	–	–	–	–	–	–	–	–	–
NCI-H596	1.09	1.09	1.13	1.03	1.35	0.933	0.938	0.962	0.924	0.711	–	–	–	–	–	0.836	0.75	0.813	0.826	0.638
Calu-6	1.15	0.958	1.05	1.01	1.05	0.73	0.709	0.658	0.529	0.276	–	–	–	–	–	–	–	–	–	–
NCI-H1395	0.994	0.86	0.903	0.999	1.29	–	–	–	–	–	0.634	0.56	0.567	0.597	0.437	1.12	0.933	1.1	0.968	0.685
NCI-H1703	1.17	1.05	0.861	0.961	1.35	0.567	0.512	0.581	0.449	0.195	–	–	–	–	–	–	–	–	–	–
EBC-1	0.191	0.223	0.199	0.217	0.25	0.181	0.194	0.191	0.26	0.219	–	–	–	–	–	–	–	–	–	–
NCI-H1648	–	–	–	–	–	–	–	–	–	–	0.287	0.283	0.266	0.26	0.242	0.534	0.455	0.535	0.387	0.29
ChaGo-K-1	–	–	–	–	–	1.15	1.15	1.18	1.05	0.792	0.935	0.951	0.89	0.844	0.607	0.903	0.965	0.859	0.776	0.632
SW 900	–	–	–	–	–	–	–	–	–	–	0.582	0.558	0.519	0.396	0.237	0.83	0.994	0.836	0.679	0.52
NCI-H2342	–	–	–	–	–	–	–	–	–	–	0.582	0.547	0.558	0.468	0.474	0.75	0.715	0.786	0.698	0.682
A549	1.07	0.897	1.01	1	0.981	0.72	0.656	0.677	0.511	0.36	–	–	–	–	–	–	–	–	–	–
NCI-H441	–	–	–	–	–	0.779	0.656	0.715	0.73	0.473	0.212	0.237	0.233	0.171	0.183	0.598	0.504	0.461	0.436	0.457
LCLC-103H	–	–	–	–	–	1.06	1.05	1.07	1	0.713	0.463	0.47	0.496	0.404	0.322	0.679	0.689	0.609	0.638	0.465
